Each structure is given as a SMILES string.

Assay [1] deals with HCT116 MTAP^−/− cells. The experiment in a line: Cell proliferation inhibition test (Cell-Titer Glo), HCT116 MTAP−/−. The settings on record: 6 days, read-out: HCT116 MTAP−/− Antiproliferative activity IC50. It counts as cell-based, human. The method in brief:
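Cells seeded at 400 per well, overnight, then exposed 6 days at 37 °C to compound from 10 μM top final concentration in 3-fold dilutions. Viability by ATP luminescence (Cell-Titer Glo), normalised to medium-only and DMSO controls, IC50 by curve fitting.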

The subject of assay [2] is HCT116 MTAP^−/− cells. The experiment in a line: Determination of intracellular SAM level by LC-MS/MS. The settings on record: Homo sapiens, HCT-116, 6 h, read-out: SAM production inhibitory activity IC50. It counts as cell-based. As to the method:
Test Example 2. Determination of Intracellular SAM Level
The brief introduction of the test principle: After the test MAT2A inhibitor was incubated with cancer cells for a period of time, the cells were lysed with a stop reagent to quench the activity of the MAT2A enzyme. The catalytic product SAM of MAT2A in the cell lysate was quantitatively determined by LC-MS/MS, and thus the activity of MAT2A in the cell was reflected.
Reference: The experiment referred to the method disclosed in patent WO2018045071.
Material and cell: HCT116 MTAP^−/− cells were purchased from KYinno; fetal bovine serum, McCoy's 5a culture medium, and penicillin-streptomycin were purchased from Gibco Company (U.S.), and 96-well plates were purchased from Corning Company (U.S.).
Cell culture: HCT116 MTAP^−/− cells were cultured with a McCoy's 5a medium containing 10% fetal bovine serum+1% penicillin-streptomycin at 37° C. with 5% CO2. Cells at logarithmic growth phase were available for the experiment.
LC-MS/MS detection: The effect of the compound on the SAM production level in HCT116 MTAP^−/− cell strains was detected by LC-MS/MS. The cells were adjusted to a concentration of 50000 cells per well, seeded on a 96-well plate, and incubated overnight at 37° C. with 5% CO2. In the experimental group, the test compound was dissolved in DMSO, diluted sequentially with DMSO and a culture medium, and transferred to a cell plate at a final concentration of 10 μM, 3-fold dilution. The cells were continuously cultured at 37° C. with 5% CO2 for 6 h. The supernatant was pipetted off. After the cells were washed once with PBS, glacial acetic acid was added to lyse the cells. After the lysate was processed, the SAM concentration was determined by LC-MS/MS analysis.
A negative control group and a positive control group were respectively used as Bottom and Top. The negative control group was added with 10 μM positive compound (compound 072 of Example 51 of patent WO2021139775A1) in the same volume, and other operations were consistent with those of the experimental group. The positive control group was not added with the test compound, only added with DMSO in the same volume, and other operations were consistent with those of the experimental group.
The % Compound inhibition was calculated and fitted to give the IC50 of the compound.
% Compound inhibition=1−100%×(Signal−Bottom)/(Top−Bottom)
Signal referred to the signal value of the experimental group, Bottom referred to the average signal value of the negative control group, and Top referred to the average signal value of the positive control group.

For `Cc1ncccc1-n1c(=O)c2ncn(C)c2c2ccc(C(F)(F)F)nc21` (atropisomer, axis not shown) [Compound 20, 1-methyl-5-(2-methylpyridin-3-yl)-7-(trifluoromethyl)-1,5-dihydro-4H-imidazo[4,5-c][1,8]naphthyridin-4-one], the IC50 in the assay on HCT116 MTAP^−/− cells [1] (Homo sapiens, HCT-116, 144 h) was determined as 76.5 nM; in the assay on HCT116 MTAP^−/− cells [2], 3 nM.

As for `Cn1cnc2c(=O)n(-c3cccc(F)c3Cl)c3nc(C(F)(F)F)ccc3c21` (atropisomer, axis not shown) [Compound 25, 5-(2-chloro-3-fluorophenyl)-1-methyl-7-(trifluoromethyl)-1,5-dihydro-4H-imidazo[4,5-c][1,8]naphthyridin-4-one], the IC50 in the assay on HCT116 MTAP^−/− cells [1] (Homo sapiens, HCT-116, 144 h) worked out at 155 nM; in the assay on HCT116 MTAP^−/− cells [2] it was 4.4 nM.

In the case of `Cn1cnc2c(=O)n(-c3cccc(F)c3Cl)c3nc(C(F)(F)F)ccc3c21` (single isomer, unassigned) [Compound 25-P2, 5-(2-chloro-3-fluorophenyl)-1-methyl-7-(trifluoromethyl)-1,5-dihydro-4H-imidazo[4,5-c][1,8]naphthyridin-4-one], the IC50 in the assay on HCT116 MTAP^−/− cells [1] (Homo sapiens, HCT-116, 144 h) was found to be 70.5 nM; in the assay with HCT116 MTAP^−/− cells [2], 2.8 nM.

Take `Cn1cnc2c(=O)n(-c3cccnc3C(F)(F)F)c3nc(C(F)(F)F)ccc3c21` (single isomer, unassigned) [Compound 41-P2, 1-methyl-7-(trifluoromethyl)-5-(2-(trifluoromethyl)pyridin-3-yl)-1,5-dihydro-4H-imidazo[4,5-c][1,8]naphthyridin-4-one]: the IC50 with HCT116 MTAP^−/− cells [1] (Homo sapiens, HCT-116, 144 h) came to 80.1 nM; in the assay on HCT116 MTAP^−/− cells [2], 4.6 nM.

`Cn1cnc2c(=O)n(-c3cccnc3C3CC3)c3nc(C(F)(F)F)ccc3c21` (single isomer, unassigned) [Compound 42-P2, 5-(2-cyclopropylpyridin-3-yl)-1-methyl-7-(trifluoromethyl)-1,5-dihydro-4H-imidazo[4,5-c][1,8]naphthyridin-4-one]: in the assay on HCT116 MTAP^−/− cells [1] (Homo sapiens, HCT-116, 144 h), the IC50 was 44.2 nM.

Consider `Cn1cnc2c(=O)n(-c3cccnc3C3CC3)c3cc(C(F)(F)F)ccc3c21` (single isomer, unassigned) [Compound 48-P2, 5-(2-cyclopropylpyridin-3-yl)-1-methyl-7-(trifluoromethyl)-1,5-dihydro-4H-imidazo[4,5-c]quinolin-4-one], for which the IC50 with HCT116 MTAP^−/− cells [1] (Homo sapiens, HCT-116, 144 h) was found to be 90.9 nM.

For `Cn1cnc2c(=O)n(-c3cccnc3C3CC3)c3cc(Cl)ccc3c21` (single isomer, unassigned) [Compound 49-P2, 7-chloro-5-(2-cyclopropylpyridin-3-yl)-1-methyl-1,5-dihydro-4H-imidazo[4,5-c]quinolin-4-one], the IC50 was 34.4 nM in the assay with HCT116 MTAP^−/− cells [1] (Homo sapiens, HCT-116, 144 h) and 1.9 nM in the assay on HCT116 MTAP^−/− cells [2].

As for `O=c1c2ncoc2c2ccc(C(F)(F)F)nc2n1-c1cccnc1C1CC1` (single isomer, unassigned) [Compound 81-P2, 5-(2-cyclopropylpyridin-3-yl)-7-(trifluoromethyl)oxazolo[4,5-c][1,8]naphthyridin-4(5H)-one], the IC50 with HCT116 MTAP^−/− cells [1] (Homo sapiens, HCT-116, 144 h) amounted to 111 nM.

Consider `Cn1cnc2c(=O)n(-c3cccc(F)c3Cl)c3cc(Cl)ccc3c21` [Compound 39, 7-chloro-5-(2-chloro-3-fluorophenyl)-1-methyl-1,5-dihydro-4H-imidazo[4,5-c]quinolin-4-one], for which the IC50 in the assay with HCT116 MTAP^−/− cells [1] was found to be 106 nM.

With `Cc1ncccc1-n1c(=O)c2ncoc2c2ccc(C(F)(F)F)nc21` [Compound 40, 5-(2-methylpyridin-3-yl)-7-(trifluoromethyl)oxazolo[4,5-c][1,8]naphthyridin-4(5H)-one], the IC50 with HCT116 MTAP^−/− cells [1] (Homo sapiens, HCT-116, 144 h) is 120 nM.

For `Cc1ncccc1-n1c(=O)c2ncn(C)c2c2ccc(C(F)(F)F)cc21` [Compound 45, 1-methyl-5-(2-methylpyridin-3-yl)-7-(trifluoromethyl)-1,5-dihydro-4H-imidazo[4,5-c]quinolin-4-one], in the assay with HCT116 MTAP^−/− cells [1] (Homo sapiens, HCT-116, 144 h), the IC50 came to 134 nM.

Source of the values: patent US20240124454A1, “TRICYCLIC COMPOUND AND USE THEREOF” (NANJING ZAIMING PHARMACEUTICAL CO., LTD., priority 2020, published 2024).
